PMC5727100, “Evolution of a flipped pathway creates metabolic innovation in tomato trichomes through BAHD enzyme promiscuity” (Nature Communications, 2017)

Biological target: T1, S. arcanum LA2172-ASAT2 (Solanum arcanum, UniProt A0A0U2QQP2)
T1 construct: pET28b, His-tag nickel purified from E. coli BL21 Rosetta
T1 sequence (A0A0U2QQP2 1-446): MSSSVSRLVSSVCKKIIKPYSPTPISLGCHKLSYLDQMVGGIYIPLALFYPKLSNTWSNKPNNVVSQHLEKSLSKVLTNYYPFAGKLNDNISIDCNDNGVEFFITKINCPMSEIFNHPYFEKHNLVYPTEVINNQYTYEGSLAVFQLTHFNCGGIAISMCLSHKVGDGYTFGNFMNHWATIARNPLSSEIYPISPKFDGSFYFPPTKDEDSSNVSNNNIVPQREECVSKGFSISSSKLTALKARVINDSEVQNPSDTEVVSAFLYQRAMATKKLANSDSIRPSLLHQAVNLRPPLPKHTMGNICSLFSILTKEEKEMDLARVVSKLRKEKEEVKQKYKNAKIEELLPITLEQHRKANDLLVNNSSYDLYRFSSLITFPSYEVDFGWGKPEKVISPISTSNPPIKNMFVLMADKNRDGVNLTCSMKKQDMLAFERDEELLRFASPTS
Test: LC/MS product detection
Format: biochemical
Settings: acyl-CoA donor 100 uM; acceptor 50 uM; pH 6.0, 30 C

CC(C)CC(=O)O[C@H]1[C@H](O)[C@@H](O)[C@@H](O[C@]2(CO)O[C@H](CO)[C@@H](O)[C@@H]2O)O[C@@H]1CO [S1:5 (iC5^R4)]
LC/MS product detection: all characterized ASAT2 proteins in this tomato subclade possessed only F-type enzymatic activities
